Assays:
Assay in all cases: normalised response (% of control), CellTiter-Glo; higher = more viable cells (100 = DMSO, 0 = benzethonium chloride kill control)
Conditions in all cases: incubation time: 72 h
[1] = test system: HCC1143
Method in brief: (§1)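 Values are normalised signals, each belonging to one concentration of the series. Breast cancer cells (20 µl suspension) were seeded into 384-well plates with compound at 5 concentrations in 10-fold steps over a compound-specific 10,000-fold range and incubated 72 h. Readouts were CellTox Green fluorescence (485/520 nm), then CellTiter-Glo luminescence after 10 min at room temperature, with each plate set to 0.1 % DMSO as 100 and a positive kill control as 0.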

[2] = test system: MDA-MB-468
Method in brief: as §1

[3] = test system: HCC1937
Method in brief: as §1

[4] = test system: Hs578T
Method in brief: as §1

[5] = test system: SK-BR-3
Method in brief: as §1

[6] = test system: CAL-51
Method in brief: as §1

[7] = test system: MCF-10A
Method in brief: as §1

[8] = test system: HDQ-P1
Method in brief: as §1

[9] = test system: HCC1599
Method in brief: as §1

[10] = test system: DU-4475
Method in brief: as §1

[11] = test system: CAL-85-1
Method in brief: as §1

[12] = test system: BT-474
Method in brief: as §1

[13] = test system: MDA-MB-453
Method in brief: as §1

[14] = test system: CAL-148
Method in brief: as §1

[15] = test system: MFM-223
Method in brief: as §1

[16] = test system: MDA-MB-436
Method in brief: as §1

[17] = test system: BT-549
Method in brief: as §1

[18] = test system: MDA-MB-231
Method in brief: as §1

[19] = test system: CAL-120
Method in brief: as §1

Row | Compound | normalised response [1] | normalised response [2] | normalised response [3] | normalised response [4] | normalised response [5] | normalised response [6] | normalised response [7] | normalised response [8] | normalised response [9] | normalised response [10] | normalised response [11] | normalised response [12] | normalised response [13] | normalised response [14] | normalised response [15] | normalised response [16] | normalised response [17] | normalised response [18] | normalised response [19]
1 | CN1CCC(COc2cnc(-c3cccc(Cn4nc(-c5cccc(C#N)c5)ccc4=O)c3)nc2)CC1 (0.1 nM) | 94.6% | 96.9% | 94.5% | 96.4% | 84.6% | 82.4% | 89.1% | 99.1% | 92.2% | 93.1% | 92.8% | 98.2% | 105% | 103% | 94.2% | 81.1% | 95.1% | 98.5% | 96.1%
2 | CN(C)C/C=C/C(=O)Nc1cc2c(Nc3ccc(F)c(Cl)c3)ncnc2cc1O[C@H]1CCOC1 [Afatinib] (0.1 nM) | 93.2% | 100% | 96.6% | 99.6% | 104% | 75% | 91.2% | 108% | 99% | 104% | 116% | 94.9% | 111% | 103% | 96.2% | 85.8% | 97.3% | 103% | 93.7%
3 | COc1cc(Nc2ncc3c(n2)-c2ccc(Cl)cc2C(c2c(F)cccc2OC)=NC3)ccc1C(=O)O [Alisertib] (1 nM) | 91.6% | 95.9% | 88.4% | 95.6% | 94.2% | 116% | 84% | 94.7% | 90.2% | 97% | 91.9% | 98.9% | 95.9% | 89.3% | 92.9% | 99% | 95.6% | 93.3% | 96.7%
4 | COc1cc(Nc2ncc3c(n2)-c2ccc(Cl)cc2C(c2c(F)cccc2OC)=NC3)ccc1C(=O)O [Alisertib] (10 nM) | 93.9% | 87.7% | 95.9% | 97% | 70.4% | 86.4% | 93% | 97.1% | 102% | 98.2% | 94.4% | 93.4% | 88.3% | 91.9% | 88.6% | 89.5% | 96% | 95.3% | 96.1%
5 | CN1CC[C@H](c2c(O)cc(O)c3c(=O)cc(-c4ccccc4Cl)oc23)[C@H](O)C1 [Alvocidib] (10 nM) | 103% | 99.9% | 101% | 102% | 106% | 125% | 110% | 99.2% | 103% | 104% | 103% | 98.7% | 112% | 104% | 106% | 106% | 102% | 101% | 92.4%
6 | Nc1nc(Cl)nc2c1ncn2[C@H]1C[C@H](O)[C@@H](CO)O1 [Cladribine] (1 nM) | 104% | 102% | 101% | 105% | – | 94.2% | 104% | 97.8% | 102% | 106% | 102% | 99.3% | 113% | 103% | 105% | 102% | 97.2% | 100% | 97.5%
7 | Nc1ccn([C@@H]2O[C@H](CO)[C@@H](O)[C@@H]2O)c(=O)n1 [Cytarabine] (10 nM) | 99.3% | 93.8% | 96.5% | 114% | – | 80.4% | 112% | 107% | 90.2% | 99.4% | 99% | 97.6% | 109% | 102% | 107% | 105% | 96.8% | 99.2% | 96.4%
8 | Cc1c2oc3c(C)ccc(C(=O)N[C@@H]4C(=O)N[C@H](C(C)C)C(=O)N5CCC[C@H]5C(=O)N(C)CC(=O)N(C)[C@@H](C(C)C)C(=O)O[C@@H]4C)c3nc-2c(C(=O)N[C@@H]2C(=O)N[C@H](C(C)C)C(=O)N3CCC[C@H]3C(=O)N(C)CC(=O)N(C)[C@@H](C(C)C)C(=O)O[C@@H]2C)c(N)c1=O [Dactinomycin] (1 nM) | 80.8% | 60.3% | 79.9% | 105% | – | 99.9% | 77.8% | 71.4% | 102% | 97% | 90.8% | 79.4% | 94% | 81.8% | 105% | 87% | 71.9% | 97.7% | 90.3%
9 | COc1cccc2c1C(=O)c1c(O)c3c(c(O)c1C2=O)C[C@@](O)(C(=O)CO)C[C@@H]3O[C@H]1C[C@H](N)[C@H](O)[C@H](C)O1 [Doxorubicin] (1 nM) | 99.1% | 104% | 98.6% | 100% | – | 107% | 110% | 101% | 120% | 108% | 103% | 101% | 113% | 95.7% | 105% | 107% | 94.2% | 99.5% | 93.6%
10 | Cc1ccc(F)c(NC(=O)Nc2ccc(-c3cccc4[nH]nc(N)c34)cc2)c1 [Linifanib] (1 nM) | 110% | 106% | 101% | 98.9% | – | 100% | 109% | 104% | 112% | 111% | 103% | 106% | 113% | 114% | 112% | 101% | 104% | 106% | 102%

— the supplement of paper PMC4862054
